Results published in publication PMC7476666 (Journal of the American Chemical Society, 2016).

How the values were obtained:
EphB3 [1] = molecular target: T1, EphB3 (Homo sapiens, UniProt P54753); assay: Competition with probe 10 for EphB3 labeling in cell lysate; format: binding
T1 sequence (P54753 34-998): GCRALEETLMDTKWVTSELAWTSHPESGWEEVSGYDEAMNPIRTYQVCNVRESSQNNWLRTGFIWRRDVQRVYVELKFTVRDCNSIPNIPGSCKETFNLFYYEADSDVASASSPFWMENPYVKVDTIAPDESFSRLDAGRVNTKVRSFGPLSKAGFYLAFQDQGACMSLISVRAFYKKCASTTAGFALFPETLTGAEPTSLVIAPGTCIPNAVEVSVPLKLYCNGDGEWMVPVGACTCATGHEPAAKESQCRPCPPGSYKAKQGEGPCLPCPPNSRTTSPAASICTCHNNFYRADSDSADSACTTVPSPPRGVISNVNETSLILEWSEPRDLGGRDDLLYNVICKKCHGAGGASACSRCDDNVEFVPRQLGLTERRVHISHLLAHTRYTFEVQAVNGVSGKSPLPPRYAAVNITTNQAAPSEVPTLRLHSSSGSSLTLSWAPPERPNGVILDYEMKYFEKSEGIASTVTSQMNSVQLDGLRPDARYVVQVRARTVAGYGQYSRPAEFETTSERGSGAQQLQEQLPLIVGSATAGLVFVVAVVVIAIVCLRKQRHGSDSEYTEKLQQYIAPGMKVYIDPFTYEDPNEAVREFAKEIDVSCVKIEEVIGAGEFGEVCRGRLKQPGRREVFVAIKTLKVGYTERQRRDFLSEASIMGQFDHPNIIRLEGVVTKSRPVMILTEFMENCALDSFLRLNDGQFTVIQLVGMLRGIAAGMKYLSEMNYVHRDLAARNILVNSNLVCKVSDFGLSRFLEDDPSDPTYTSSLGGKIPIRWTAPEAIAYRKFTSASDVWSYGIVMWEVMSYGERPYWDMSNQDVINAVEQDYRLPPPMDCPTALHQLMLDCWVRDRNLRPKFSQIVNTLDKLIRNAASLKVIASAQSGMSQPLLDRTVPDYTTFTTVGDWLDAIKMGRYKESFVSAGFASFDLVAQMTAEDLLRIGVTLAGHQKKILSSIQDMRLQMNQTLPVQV

EphB3 WT = molecular target: T2, EphB3 WT (Homo sapiens, UniProt P54753); assay: EphB3 autophosphorylation in transfected HEK293 cells; format: cell-based; conditions: read-out: IC50, EphB3 autophosphorylation in cells
T2 sequence (P54753 34-998): T1 sequence (P54753 34-998)

EphB3 [2] = molecular target: T1, EphB3; assay: Competition / pulse-chase with probe 10 for EphB3 occupancy in HEK293 cells

- time to engage EphB3 (preincubation required to compete off labeling by 10) (EphB3 [1]): over 10 min
- IC50 (EphB3 WT): 0.32 µM
- time to engage EphB3 (preincubation required to block labeling by 10) (EphB3 [2]; live cells): over 10 min
- IC50 (EphB3 [2]; read-out: IC50 for probe labeling of EphB3, competition with 10 (10 nM) in cells): 0.26 µM
Structure (SMILES): Cc1ccc(C(=O)Nc2cccc(C(F)(F)F)c2)cc1Nc1nc(-c2cccnc2)nc2c1cnn2C [BHG-712]
